Consider ten compounds from patent publication US4672063A, “Antiallergic 5-alkyl-1-phenyl-2-piperazinoalkylpyrazolin-3-one compounds” (Kali-Chemie Pharma GmbH, priority 1984, dated 1987).

A short description of data set [1]: Acute 8-day toxicity, single i.p. application to male mice (LD50). The conditions noted are these: in vivo, ip, mouse i.p., 8 days. On the procedure:
The acute 8-day toxicity is determined after a single application i.p. to male mice (body weight 18 to 22 g). The mortality is noted for 8 days. The results are calculated as LD50 values, i.e. the dose which kills 50% of the animals.

Data set [2] deals with serotonin induced anaphylactoidal reaction. The experiment in a line: Inhibition of serotonin-induced anaphylactoid cutaneous reaction in the rat, test substance p.o. Format: in vivo, rat (Sprague-Dawley). The following applies: po, 1 μg serotonin intradermally, read-out: ED50 inhibiting effect, serotonin induced anaphylactoidal reaction. On the procedure:
(§1) 2. Determining the inhibition of passive cutaneous anaphylaxis (PCA) and the inhibition of anaphylactoid cutaneous reactions induced by histamine and by serotonin.
(§2) The determination of the inhibition of passive cutaneous anaphylaxis and the anaphylactoid cutaneous reactions induced by histamine and by serotonin, are carried out, as set forth below, according to the method of Martin and Baggiolini (Naunyn-Schmeiedeberg's Archives of Pharmacology 316 (1981) 186-189).
(§3) For passive sensitizing against ovalbumin, male Sprague-Dawley rates (body weight 150 to 165 g) are injected intradermally on a shaved part of the back with 0.05 ml of a 1:2.5 dilution of antiovalbumin serum, rich in IgE, in physiological sodium chloride solution.
(§4) 24 hours after the sensitizing, solutions of the test substances are administered orally to the rats. For comparison, a control group receives only the solvent.
(§5) To trigger the histamine-induced and serotonin-induced anaphylactoid reactions of the skin, the animals are injected intradermally 30 minutes later on a second shaved part of the back with a solution of 40 μg histamine in 0.05 ml physiological sodium chloride solution and on a third shaved part of the back with a solution of 1 μg serotonin in 0.05 physiological sodium chloride solution.
(§6) Immediately thereafter 1.25 mg (-~8 mg/kg) ovalbumin to trigger the anaphylactic reaction, and 4 mg (-~26.4 mg/kg) of a blue dye dissolved in 0.5 ml phosphate-buffered physiological sodium chloride solution are administered i.v. to the animals.
(§7) After 30 minutes the animals are killed, the skin is removed and in the individual blue patches the quantity of dye contained therein is determined separately. According to the method of Mordelet-Danbrine et al (Therapie 29 (1974) 851-862) the dye is extracted from the individual patches in each case with 2.5 ml dimethylformamide at a temperature of 37° C. for 4 days and the quantity of dye obtained in each case in the extraction solution is determined by spectrophotometric measurement. The doses of the test substances which cause a 50% reduction in the dye concentration compared with the control group are calculated as ED50 values.

Data set [3] relates to peritonal mast cells of rats. In words: In vitro inhibition of anaphylactically caused histamine release from peritonal mast cells of rats. Format: cell-based, rat (Sprague-Dawley). The conditions noted are these: Rattus norvegicus, Mast cell; ovalbumin trigger, 1 minute preincubation at 37° C.; read-out: EC50 in vitro inhibiting effect with respect to anaphylactically caused histamine release from mast cells of the rat. On the procedure:
3. Determining the inhibiting effect in vitro on the release of histamine, caused anaphylactically, from peritonal mast cells of rats.
In order to obtain the peritonal mast cells, Sprague-Dawley rats are killed by inhalation of ether and immediately after cessation of breathing has occurred, 15 ml of a cold solution of 1 mg/ml human serum albumin in phosphate-buffered sodium chloride solution are injected into the abdominal cavity. The peritonal fluid is then removed and the mast cells are separated therefrom by centrifuging and are suspended in phosphate-buffered sodium chloride solution, whereafter the suspension is adjusted to a mast cell concentration of 5×10^5 per ml.
The mast cell suspension, divided up into samples each of 100 μl, is introduced into test-tubes and each sample, for passive sensitizing, is mixed with 100 μl of a 1:10 dilution of IgE-rich antiovalbumin serum in physiological sodium chloride solution (prepared according to the method described above) and is incubated for 30 minutes at a temperature of 37° C. (water bath). For the removal of unbonded IgE, the mast cells are then washed with 2 ml phosphate-buffered sodium chloride solution, centrifuged, and the supernatant fluid is discarded. Then the mast cells are incubated for 1 minute at 37° C. with 200 μl of a solution of the test substance in phosphate-buffered sodium chloride solution. A control group is only incubated with the same quantity of phosphate-buffered sodium chloride solution which is free of test substance.
After an incubation period of 3 minutes at 37° C., the reaction is stopped by rapid cooling in an ice bath. Then centrifuging takes place, the supernatant fluid is decanted and the histamine content therein is determined directly, without further extraction, spectrofluorimetrically according to the method of Shore (J. Pharmac. Exp. Ther. 127 (1959) 182-186).
For the extraction of the residual histamine still contained in the mast cells of the undecanted material, the latter is mixed with 2 ml phosphate-buffered sodium chloride solution and the suspension is heated in a boiling water bath. Then centrifuging takes place, the supernatant fluid is decanted and therein the residual histamine extracted from the mast cells is determined spectrofluorimetrically.
For each sample, the quantity of the released histamine is calculated as percentage proportion of the overall quantity of histamine (=total of released histamine and residual histamine retained in the mast cells).
The EC50 values are calculated to be those molar concentrations of the test substances in the respective test solutions which produce a 50% inhibition of the histamine release compared to the control group.

For data set [4], the system named is passive cutaneous anaphylaxis. In words: Inhibition of passive cutaneous anaphylaxis (PCA) in the rat, test substance p.o. Format: in vivo, rat (Sprague-Dawley). The conditions noted are these: po, 50% reduction in dye concentration vs control, read-out: ED50 inhibiting effect, passive cutaneous anaphylaxy. As to the method: as §1
For the preparation of an antiovalbumin serum, rich in IgE, which is used in the test, according to the method of Lehrer et al (J. Immunol. 116, (1976) 178-182) and Pauwels et al (Ann. Immunol. 230C., (1979), 49-58), Sprague-Dawley rats are sensitized by i.p. injection of 1 mg ovalbumin and 1 ml Bordetella pertussis suspension (vaxicoq, Merieux 3×10^10 organisms/ml). After 20 days the animals are given an injection of 10 mg ovalbumin in the same way, but without any additive. After a further 4 days, blood is removed from the animals and the blood is centrifuged. The antiserum thus obtained is stored at -20° C. and adjusted according to the method of Goose et al (Immunology 16 (1968) 749-760).
as §2, §3, §4, §6, §7

Data set [5] concerns carrageenin edema of the paw. In words: Inhibition of carrageenin paw edema in the rat. The class given is in vivo, rat (Wistar). The conditions noted are these: po, 100 mg/kg p.o., 3 hours after irritant, read-out: % Inhibition of carageenin paw edema in the rat. On the procedure:
Description of the test method to determine the inhibiting effect on the carrageenin edema of the paw in the rats according to the method of Winter et al (Proc. Soc. Exp. Biol. Med. 111 (1962) 544-547).
Male Wistar rates with a body weight of approximately 120 to 140 g are used. A dose of 100 mg/kg of the test substance suspended in a volume of 0.5 ml per 100 g body weight of a 1% methyl cellulose solution Tylose®, American Hoechst Corp., Somerville, NJ) is administered per os.
Only the Tylose® solution is administered to a control group. One hour later, to initiate the inflammation, 0.1 ml of a 1% suspension of carageenin (Satiagum® E) in an isotonic solution of sodium chloride are administered as an irritant by intraplantar injection into the right rear paw. An identical volume of isotonic sodium chloride solution is injected into the left rear paw. Both before and also 3 hours after the administration of the irritant, the volume of the individual rat paws is measured plethysmometrically and the volume of swelling of the paw after administration of carrageenin is determined compared with the paw which was only treated with sodium chloride solution. The inhibition of edema formation brought about by the test substances in the treated animals is indicated in percentage compared with the animals of the untreated control group.
On the technique in general: The carrageenan paw model is a standard test of acute inflammation.

The test system of data set [6] is histamine-induced anaphylactoidal reaction. In words: Inhibition of histamine-induced anaphylactoid cutaneous reaction in the rat, test substance p.o. Format: in vivo, rat (Sprague-Dawley). The conditions noted are these: po, 40 μg histamine intradermally, read-out: ED50 inhibiting effect, histamine-induced anaphylactoidal reaction. As to the method: as §1, §2, §3, §4, §5, §6, §7

Each structure is given as a SMILES string.

Broadly, the LD50 is the dose at which mortality reaches 50%. One may read the ED50 as the midpoint of the dose-response relation. One may read the EC50 as the concentration that produces a half-maximal response.

`CCc1cc(=O)n(CCCN2CCN(c3ccc(F)cc3)CC2)n1-c1ccccc1` [Example 1, 5-ethyl-1-phenyl-2-{3-[4-(4-fluorophenyl)-piperazin-1-yl]-propyl}-pyrazolin-3-one]: the LD50 at 192 h in data set [1] is 117 mg/kg. In addition, the ED50 in data set [2] is 2.6 mg/kg; in data set [4], 2.5 mg/kg; in data set [6], 4.7 mg/kg. Besides, the 50% effective concentration (EC50) in data set [3] came out at 50 µM. Further, the inhibition in vivo at 100 mg/kg in data set [5] was found to be 52.8%.
With `Cc1cc(=O)n(CCCN2CCN(c3ccc(F)cc3)CC2)n1-c1ccccc1` [Example 8], the inhibition in vivo at 100 mg/kg in data set [5] turned out to be 56.4%.
Consider `CCCc1cc(=O)n(CCCN2CCN(c3ccc(F)cc3)CC2)n1-c1ccccc1` [Example 12], for which the inhibition in vivo at 100 mg/kg in data set [5] worked out at 49.5%.
In turn, `Cc1cc(=O)n(CCCN2CCN(c3ccc(F)cc3)CC2)n1-c1ccc([N+](=O)[O-])cc1` [Example 39] displayed an LD50 at 192 h in data set [1] of 91.5 mg/kg. Besides, the results for the ED50 in data set [2], in data set [4] and in data set [6] were 2.5 mg/kg, 5.7 mg/kg and 9.7 mg/kg, respectively. Further, the inhibition in vivo at 100 mg/kg in data set [5] amounted to 42.6%.
On to `CCc1cc(=O)n(CCCN2CCN(c3ccc(F)cc3)CC2)n1-c1ccc([N+](=O)[O-])cc1` [Example 54], for which the LD50 at 192 h in data set [1] is 53.3 mg/kg. Besides, the ED50 in data set [2] was 0.52 mg/kg; in data set [4], 4.45 mg/kg; in data set [6], 5.46 mg/kg. In addition, the EC50 in data set [3] stood at 120 µM. Also, the inhibition in vivo at 100 mg/kg in data set [5] was 45.6%.
`Cc1ccnc(N2CCN(CCCn3c(=O)cc(C4CCCC4)n3-c3ccccc3)CC2)c1` [Example 58]: the LD50 at 192 h in data set [1] was 95 mg/kg. Also, the ED50 was found to be 1.41 mg/kg in data set [2], 1.17 mg/kg in data set [4] and 10 mg/kg in data set [6]. Moreover, the EC50 in data set [3] was found to be 120 µM.
Regarding `CC(=O)c1ccc(-n2c(C)cc(=O)n2CCCN2CCN(c3ccc(F)cc3)CC2)cc1` [Example 59], the inhibition in vivo at 100 mg/kg in data set [5] stood at 45.7%.
Compound `Cc1cc(=O)n(CCCN2CCN(c3ccc(F)cc3)CC2)n1-c1ccc(C#N)cc1` [Example 60] registered an LD50 at 192 h in data set [1] of 91.5 mg/kg. For the same compound, the figures for the ED50 in data set [2], in data set [4] and in data set [6] were 2.49 mg/kg, 1.86 mg/kg and 3.32 mg/kg, respectively. Moreover, the half-maximal effective concentration (EC50) in data set [3] is 200 µM. Also, in data set [5], the inhibition in vivo at 100 mg/kg came out at 62.4%.
As for `Cc1cc(=O)n(CCCN2CCN(c3ccc(F)cc3)CC2)n1-c1ccc(Cl)cc1` [Example 62], the median effective dose (ED50) came to 3.64 mg/kg in data set [2], 5.47 mg/kg in data set [4] and 7.04 mg/kg in data set [6]. Further, the EC50 in data set [3] amounted to 62 µM. In addition, the inhibition in vivo at 100 mg/kg in data set [5] amounted to 63.9%.
As to `O=c1cc(C2CCCC2)n(-c2ccccc2)n1CCCN1CCN(c2ccc(F)cc2)CC1` [Example 63], the inhibition in vivo at 100 mg/kg in data set [5] turned out to be 42.2%.
